“And” between values parts separate entries of the source, which are not always exact repeats. Equal entries are not always repeated.
Assay: xn = mol fraction of the nth substance listed
Details: Liquid, x1 = 0.617; for speed of sound: Frequency=3 MHz, Single path-length method; for mass density: Vibrating tube method

CCOC(F)(F)C(F)(C(F)(F)F)C(F)(F)F [nonafluoroisobutyl ethyl ether] + CCOC(F)(F)C(F)(F)C(F)(F)C(F)(F)F
Details | mass density | speed of sound [m/s]
293.15 K, 100 kPa | 1433.9 kg/m3 and 1434.27 kg/m3 | 637.83
293.15 K, 1000 kPa | 1436.6 kg/m3 | –
293.15 K, 5000 kPa | 1448.2 kg/m3 | –
293.15 K, 10000 kPa | 1461.3 kg/m3 | –
293.15 K, 15000 kPa | 1473.4 kg/m3 | –
293.15 K, 20000 kPa | 1484.5 kg/m3 | –
293.15 K, 25000 kPa | 1494.8 kg/m3 | –
293.15 K, 30000 kPa | 1504.7 kg/m3 | –
293.15 K, 35000 kPa | 1513.9 kg/m3 | –
293.15 K, 40000 kPa | 1522.5 kg/m3 | –
293.15 K, 45000 kPa | 1530.8 kg/m3 | –
293.15 K, 50000 kPa | 1538.7 kg/m3 | –
293.15 K, 55000 kPa | 1546.3 kg/m3 | –
293.15 K, 60000 kPa | 1553.5 kg/m3 | –
293.15 K, 65000 kPa | 1560.5 kg/m3 | –
293.15 K, 70000 kPa | 1567.2 kg/m3 | –
293.15 K, 80000 kPa | 1580 kg/m3 | –
293.15 K, 90000 kPa | 1591.9 kg/m3 | –
293.15 K, 100000 kPa | 1603.1 kg/m3 | –
293.15 K, 110000 kPa | 1613.9 kg/m3 | –
293.15 K, 120000 kPa | 1624 kg/m3 | –
293.15 K, 130000 kPa | 1633.7 kg/m3 | –
293.15 K, 140000 kPa | 1642.8 kg/m3 | –
298.15 K, 100 kPa | 1423.06 kg/m3 and 1422.8 kg/m3 | 622.13
298.15 K, 1000 kPa | 1425.6 kg/m3 | –
298.15 K, 5000 kPa | 1437.7 kg/m3 | –
298.15 K, 10000 kPa | 1451.5 kg/m3 | –
298.15 K, 15000 kPa | 1463.9 kg/m3 | –
298.15 K, 20000 kPa | 1475.4 kg/m3 | –
298.15 K, 25000 kPa | 1486.2 kg/m3 | –
298.15 K, 30000 kPa | 1496.1 kg/m3 | –
298.15 K, 35000 kPa | 1505.7 kg/m3 | –
298.15 K, 40000 kPa | 1514.5 kg/m3 | –
298.15 K, 45000 kPa | 1523 kg/m3 | –
298.15 K, 50000 kPa | 1531.1 kg/m3 | –
298.15 K, 55000 kPa | 1538.8 kg/m3 | –
298.15 K, 60000 kPa | 1546.3 kg/m3 | –
298.15 K, 65000 kPa | 1553.4 kg/m3 | –
298.15 K, 70000 kPa | 1560.2 kg/m3 | –
298.15 K, 80000 kPa | 1573.2 kg/m3 | –
298.15 K, 90000 kPa | 1585.4 kg/m3 | –
298.15 K, 100000 kPa | 1596.9 kg/m3 | –
298.15 K, 110000 kPa | 1607.6 kg/m3 | –
298.15 K, 120000 kPa | 1618 kg/m3 | –
298.15 K, 130000 kPa | 1627.8 kg/m3 | –
298.15 K, 140000 kPa | 1637.2 kg/m3 | –
303.15 K, 100 kPa | 1411.62 kg/m3 | 606.46
313.15 K, 100 kPa | 1388.53 kg/m3 and 1388.4 kg/m3 | 575.75
313.15 K, 1000 kPa | 1391.8 kg/m3 | –
313.15 K, 5000 kPa | 1405.6 kg/m3 | –
313.15 K, 10000 kPa | 1421.1 kg/m3 | –
313.15 K, 15000 kPa | 1435.1 kg/m3 | –
313.15 K, 20000 kPa | 1447.8 kg/m3 | –
313.15 K, 25000 kPa | 1459.5 kg/m3 | –
313.15 K, 30000 kPa | 1470.6 kg/m3 | –
313.15 K, 35000 kPa | 1480.8 kg/m3 | –
313.15 K, 40000 kPa | 1490.3 kg/m3 | –
313.15 K, 45000 kPa | 1499.5 kg/m3 | –
313.15 K, 50000 kPa | 1508.1 kg/m3 | –
313.15 K, 55000 kPa | 1516.4 kg/m3 | –
313.15 K, 60000 kPa | 1524.3 kg/m3 | –
313.15 K, 65000 kPa | 1531.9 kg/m3 | –
313.15 K, 70000 kPa | 1539.2 kg/m3 | –
313.15 K, 80000 kPa | 1552.9 kg/m3 | –
313.15 K, 90000 kPa | 1565.7 kg/m3 | –
313.15 K, 100000 kPa | 1577.6 kg/m3 | –
313.15 K, 110000 kPa | 1589 kg/m3 | –
313.15 K, 120000 kPa | 1599.7 kg/m3 | –
313.15 K, 130000 kPa | 1610 kg/m3 | –
313.15 K, 140000 kPa | 1619.7 kg/m3 | –
323.15 K, 100 kPa | 1365.15 kg/m3 | 545.46
333.15 K, 100 kPa | 1341.02 kg/m3 and 1340.7 kg/m3 | 515.64
333.15 K, 1000 kPa | 1344.8 kg/m3 | –
333.15 K, 5000 kPa | 1361.6 kg/m3 | –
333.15 K, 10000 kPa | 1380.1 kg/m3 | –
333.15 K, 15000 kPa | 1396.3 kg/m3 | –
333.15 K, 20000 kPa | 1410.8 kg/m3 | –
333.15 K, 25000 kPa | 1424.2 kg/m3 | –
333.15 K, 30000 kPa | 1436.4 kg/m3 | –
333.15 K, 35000 kPa | 1447.8 kg/m3 | –
333.15 K, 40000 kPa | 1458.5 kg/m3 | –
333.15 K, 45000 kPa | 1468.6 kg/m3 | –
333.15 K, 50000 kPa | 1478 kg/m3 | –
333.15 K, 55000 kPa | 1487 kg/m3 | –
333.15 K, 60000 kPa | 1495.5 kg/m3 | –
333.15 K, 65000 kPa | 1503.7 kg/m3 | –
333.15 K, 70000 kPa | 1511.5 kg/m3 | –
333.15 K, 80000 kPa | 1526.3 kg/m3 | –
333.15 K, 90000 kPa | 1540 kg/m3 | –
333.15 K, 100000 kPa | 1552.7 kg/m3 | –
333.15 K, 110000 kPa | 1564.7 kg/m3 | –
333.15 K, 120000 kPa | 1576 kg/m3 | –
333.15 K, 130000 kPa | 1586.8 kg/m3 | –
333.15 K, 140000 kPa | 1597.2 kg/m3 | –
353.15 K, 1000 kPa | 1295.2 kg/m3 | –
353.15 K, 5000 kPa | 1316.1 kg/m3 | –
353.15 K, 10000 kPa | 1338.1 kg/m3 | –
353.15 K, 15000 kPa | 1357.1 kg/m3 | –
353.15 K, 20000 kPa | 1373.9 kg/m3 | –
353.15 K, 25000 kPa | 1388.9 kg/m3 | –
353.15 K, 30000 kPa | 1402.6 kg/m3 | –
353.15 K, 35000 kPa | 1415.3 kg/m3 | –
353.15 K, 40000 kPa | 1426.8 kg/m3 | –
353.15 K, 45000 kPa | 1437.9 kg/m3 | –
353.15 K, 50000 kPa | 1448.2 kg/m3 | –
353.15 K, 55000 kPa | 1457.9 kg/m3 | –
353.15 K, 60000 kPa | 1467.2 kg/m3 | –
353.15 K, 65000 kPa | 1475.9 kg/m3 | –
353.15 K, 70000 kPa | 1484.5 kg/m3 | –
353.15 K, 80000 kPa | 1500.2 kg/m3 | –
353.15 K, 90000 kPa | 1514.8 kg/m3 | –
353.15 K, 100000 kPa | 1528.3 kg/m3 | –
353.15 K, 110000 kPa | 1541.1 kg/m3 | –
353.15 K, 120000 kPa | 1553 kg/m3 | –
353.15 K, 130000 kPa | 1564.3 kg/m3 | –
353.15 K, 140000 kPa | 1575.1 kg/m3 | –
373.15 K, 1000 kPa | 1242.1 kg/m3 | –
373.15 K, 5000 kPa | 1268.4 kg/m3 | –
373.15 K, 10000 kPa | 1295.1 kg/m3 | –
373.15 K, 15000 kPa | 1317.3 kg/m3 | –
373.15 K, 20000 kPa | 1336.2 kg/m3 | –
373.15 K, 25000 kPa | 1353.3 kg/m3 | –
373.15 K, 30000 kPa | 1368.8 kg/m3 | –
373.15 K, 35000 kPa | 1382.9 kg/m3 | –
373.15 K, 40000 kPa | 1395.6 kg/m3 | –
373.15 K, 45000 kPa | 1407.7 kg/m3 | –
373.15 K, 50000 kPa | 1418.8 kg/m3 | –
373.15 K, 55000 kPa | 1429.4 kg/m3 | –
373.15 K, 60000 kPa | 1439.5 kg/m3 | –
373.15 K, 65000 kPa | 1448.9 kg/m3 | –
373.15 K, 70000 kPa | 1457.9 kg/m3 | –
373.15 K, 80000 kPa | 1474.7 kg/m3 | –
373.15 K, 90000 kPa | 1490.2 kg/m3 | –
373.15 K, 100000 kPa | 1504.5 kg/m3 | –
373.15 K, 110000 kPa | 1517.9 kg/m3 | –
373.15 K, 120000 kPa | 1530.5 kg/m3 | –
373.15 K, 130000 kPa | 1542.3 kg/m3 | –
373.15 K, 140000 kPa | 1553.7 kg/m3 | –
393.15 K, 1000 kPa | 1183.9 kg/m3 | –
393.15 K, 5000 kPa | 1218.3 kg/m3 | –
393.15 K, 10000 kPa | 1250.8 kg/m3 | –
393.15 K, 15000 kPa | 1277 kg/m3 | –
393.15 K, 20000 kPa | 1299.1 kg/m3 | –
393.15 K, 25000 kPa | 1318.3 kg/m3 | –
393.15 K, 30000 kPa | 1335.4 kg/m3 | –
393.15 K, 35000 kPa | 1350.9 kg/m3 | –
393.15 K, 40000 kPa | 1365.1 kg/m3 | –
393.15 K, 45000 kPa | 1378.1 kg/m3 | –
393.15 K, 50000 kPa | 1390.2 kg/m3 | –
393.15 K, 55000 kPa | 1401.6 kg/m3 | –
393.15 K, 60000 kPa | 1412.4 kg/m3 | –
393.15 K, 65000 kPa | 1422.5 kg/m3 | –
393.15 K, 70000 kPa | 1432.1 kg/m3 | –
393.15 K, 80000 kPa | 1450 kg/m3 | –
393.15 K, 90000 kPa | 1466.2 kg/m3 | –
393.15 K, 100000 kPa | 1481.5 kg/m3 | –
393.15 K, 110000 kPa | 1495.5 kg/m3 | –
393.15 K, 120000 kPa | 1508.7 kg/m3 | –
393.15 K, 130000 kPa | 1521.1 kg/m3 | –
393.15 K, 140000 kPa | 1532.1 kg/m3 | –
